Reference: patent US9636317B2, “Compositions and methods of use of phorbol esters” (priority 2007, dated 2017)
Where “and” joins values, the source holds several entries; their conditions need not be identical. Equal values may be shown once.

Assays:
S180 cell-injected mice = assay: Effect of TPA on peripheral WBC and Hb counts in S180 cell-injected mice; conditions: for WBC counts: second day after treatment
Experimental: Sarcoma 180 (S180) cells were injected into Kwen-Ming mice. On the third day, the mice were given TPA interperitoneally (i.p.). at 50, 100 or 200 μg/kg/day for 7 days. On the second day after the treatment was completed, blood samples were taken from the tails of the treated mice for WBC and Hb analyses.

[1] = Dose ranging study: toxicity and side effects of TPA doses given clinically by i.v. infusion; type: in vivo, human
Experimental: Due to the strong local irritation caused by TPA application, TPA was given to patients by intravenous (i.v.) infusion. TPA solution in a sterile syringe was injected into 200 ml of sterile saline and mixed well for i.v. infusion.
One mg TPA in solution was mixed well with 200 ml of sterile saline for intravenous infusion which was completed in 1 h at the rate of 16 μg/min. […] The above symptoms could be alleviated by giving the patients glucocorticoids. […] However, these side effects were short lived and reversible. The cardiac, hepatic, renal and pulmonary functions were all found to be normal.
0.5 mg of TPA in solution was mixed well with 200 ml of saline for intravenous infusion which was completed in 1 h at the rate of 8 μg/min. […] The patients tolerated the lower dose more easily. […] Difficulty in breathing was not observed. The cardiac, hepatic, renal and pulmonary functions were all normal.
0.25 mg of TPA in solution was mixed well with 200 ml of saline for intravenous infusion which was completed in 1 h at the rate of 4 μg/min. […] The cardiac, hepatic, renal and pulmonary functions were all normal.

HIV [2] = assay: First clinical study of HIV+ patients: blood HIV count; type: in vivo
Experimental: Twelve symptomatic patients (five males and seven females) between the ages of 35 to 52 all of whom were infected with HIV in 1995 through blood transfusion and were refractory to standard treatments for HIV were treated with TPA. Each patient was administered a weight adjusted dosage of TPA (75 μg/sq m) in 200 ml of sterile saline by i.v. over one hour. This dose was administered once daily for the first three days of treatment. Each patient was then given this dose every other day for days 4 to 18 followed by a six month rest period prior to a second course of treatment according to the same protocol.

HIV [3] = assay: Second clinical study of HIV+ patients: blood HIV count; type: in vivo; conditions: for BLOOD HIV COUNT LOG VALUE / BLOOD HIV COUNT RESULTS: one value per patient
Experimental: Nine of the patients in Example III were given a second treatment of TPA. Of these nine, seven were asymptomatic at the beginning of the second trial. A tenth patient (patient #2a) who was symptomatic and had not previously been treated with TPA was added to the study. Each patient was administered a weight adjusted dosage of TPA (75 μg/sq m) in 200 ml of sterile saline intravenously over one hour. This dosage was given to each patient once a day for ten consecutive days followed by a rest period of ten days for three cycles and a total of 30 doses of TPA. Patients 5a, 6a, and 8a stopped taking anti-AIDS drugs one month prior to beginning the TPA treatment and beginning again one month after the third cycle. Patients 1-4-a, 7a, and 9a-10a continued taking anti-AIDS drugs throughout the treatment.
Blood samples were taken three days prior to starting treatment, after completing the first 10 day cycle of TPA infusion and again after the last TPA infusion and CD3, CD4, CD8, WBC, RBC, HGB and platelets were measured.

[4] = tested on: CD3, CD4 and CD8 levels in peripheral blood; assay: Third clinical study of HIV+ patients: CD3, CD4, CD8 by flow cytometry; type: in vivo, human; set-up: unit not given here; conditions: one value per patient
Experimental: Six patients, two males and four females between the ages of 37 and 52 years of age (Patients #13-18), were treated with TPA. Four of these patients previously received TPA treatment in combination with anti-HIV drugs in the two previous clinical studies. The two remaining patients had never been treated with TPA, but had previously received anti-HIV drug regimens. All treatments were stopped three days prior to the initiation of the third clinical study and were not resumed until 60 days after completion of the TPA treatment. The resumption of the standard HIV treatments was required by local health authorities.
Each patient in the study received 150 μg of TPA in 200 ml of sterile saline by intravenous infusion over a 1.5 to 2 hour period daily for 60 days for a total administered dose of 9.0 mg. Following completion of the 60 days of TPA therapy, these patients remained under observation for an additional 60 days though the received no further treatment.
CD3, CD4 and CD8 levels in peripheral blood were quantitated prior to starting treatment, and again at 30 and 60 days using flow cytometry and the appropriate antibodies obtained from B.D. Bioscience, San Diego, Calif. Viral load was determined using conventional methods at Kuang Ann men Hospital, Beijing, China. Patients RBC, WBC, platelets and hemoglobin levels were also measured.

primary AML cells = assay: Primary AML cultures ex vivo: cell viability, apoptosis assays and Western analysis of ERK; type: cell-based, human
From the text: In addition to protein kinase C and ERK activation, TPA is a known inducer of NF-κB, a pro-survival transcription factor often constitutively active in AML blasts and leukemic stem cells.

[5] = Treatment of rheumatoid arthritis (patient case); type: in vivo, human; conditions: multiple injections of TPA
[6] = TPA 50 μg/kg/day i.p. for 7 days
[7] = TPA 100 μg/kg/day i.p. for 7 days
[8] = TPA 200 μg/kg/day i.p. for 7 days
[9] = 15th day during TPA (patient 07)
[10] = 4 days after initial TPA, one value per patient
[11] = 15 days after initial TPA, one value per patient
[12] = 25 days after initial TPA, one value per patient

CCCCCCCCCCCCCC(=O)O[C@@H]1[C@@H](C)[C@@]2(O)[C@@H](C=C(CO)C[C@]3(O)C(=O)C(C)=C[C@@H]23)[C@@H]2C(C)(C)[C@]12OC(C)=O [TPA, 12-O-tetradecanoylphorbol-13-acetate]
Hb (S180 cell-injected mice; [6]): 136 ± 11 g/L
WBC counts (S180 cell-injected mice; [6]): 16.1±7.4 ×10^9/L
Hb (S180 cell-injected mice; [7]): 149 ± 12 g/L
WBC counts (S180 cell-injected mice; [7]): 18.7±3.0 ×10^9/L
Hb (S180 cell-injected mice; [8]): 149 ± 10 g/L
WBC counts (S180 cell-injected mice; [8]): 20.7±3.4 ×10^9/L
Hb in the urine ([1]; 0.25 mg/patient ×4/week): No Hb was detected in the urine
cardiac, hepatic, renal and pulmonary functions ([1]; 0.25 mg/patient ×4/week): normal
chills and fever ([1]; 0.25 mg/patient ×4/week): observed, but to a much lesser extent than with the higher dosages
difficulty in breathing ([1]; 0.25 mg/patient ×4/week): no patient suffered difficulty in breathing
Hb in the urine ([1]; 0.5 mg/patient ×2/week): Occasionally, Hb was detected in patients' urine
cardiac, hepatic, renal and pulmonary functions ([1]; 0.5 mg/patient ×2/week): normal
difficulty in breathing ([1]; 0.5 mg/patient ×2/week): not observed
Hb in the urine ([1]; 1 mg/patient/week): Hb was detected in the urine
bleeding ([1]; 1 mg/patient/week): caused a minority of patients to bleed
cardiac, hepatic, renal and pulmonary functions ([1]; 1 mg/patient/week): normal
difficulty in breathing ([1]; 1 mg/patient/week): several patients suffered for a short period of time difficulty in breathing
duration of fever ([1]; 1 mg/patient/week i.v. infusion): 3 to 5 h
patients' temperature (fever) ([1]; 1 mg/patient/week i.v. infusion in 1 h): 37.5-39.5 °C
duration of chills ([1]; 1 mg/patient/week i.v. infusion, start one hour after administration): about 30 min
BLOOD HIV COUNT LOG VALUE (HIV [2]; [9]): 4.988
BLOOD HIV COUNT RESULTS (HIV [2]; [9]): 9.74 × 10^4 copies/ml
BLOOD HIV COUNT LOG VALUE (HIV [2]; [10]): 6.899 and 4.910 and 7.243 and 5.974 and 4.160 and 5.179 and 5.959 and 6.151
BLOOD HIV COUNT RESULTS (HIV [2]; [10]): 7.92 × 10^6 copies/ml and 8.13 × 10^4 copies/ml and 1.75 × 10^7 copies/ml and 9.42 × 10^5 copies/ml and 1.44 × 10^4 copies/ml and 1.51 × 10^5 copies/ml and 9.09 × 10^5 copies/ml and 1.41 × 10^4 copies/ml
BLOOD HIV COUNT LOG VALUE (HIV [2]; 7 days after TPA (patient 06)): 6.357
BLOOD HIV COUNT RESULTS (HIV [2]; 7 days after TPA (patient 06)): 2.28 × 10^6 copies/ml
BLOOD HIV COUNT LOG VALUE (HIV [2]; [11]): 4.306 and 6.801 and 3.786 and 6.614 and 7.369 and 5.274 and 6.737
BLOOD HIV COUNT RESULTS (HIV [2]; [11]): 2.02 × 10^4 copies/ml and 6.33 × 10^6 copies/ml and 6.11 × 10^3 copies/ml and 1.11 × 10^6 copies/ml and 2.34 × 10^7 copies/ml and 1.88 × 10^5 copies/ml and 5.46 × 10^6 copies/ml
BLOOD HIV COUNT LOG VALUE (HIV [2]; [12]): 4.416 and 6.941 and 5.934 and 4.084 and 6.745 and 3.724 and 6.890
BLOOD HIV COUNT RESULTS (HIV [2]; [12]): 2.60 × 10^4 copies/ml and 8.72 × 10^6 copies/ml and 8.59 × 10^5 copies/ml and 1.21 × 10^4 copies/ml and 5.56 × 10^6 copies/ml and 5.30 × 10^3 copies/ml and 7.77 × 10^6 copies/ml and undetectable
BLOOD HIV COUNT LOG VALUE (HIV [2]; 25 days after initial TPA, sample taken from the second cycle treatment (patients 10-12)): 4.446 and 5.096 and 3.798
change of viral load (summary of Table 2) (HIV [2]; twelve patients): five patients having an increase in HIV and no change or a reduction in seven others
BLOOD HIV COUNT LOG VALUE (HIV [3]; after first cycle TPA infusion): 5.490 and 2.371 and 4.825 and 5.217 and 5.450 and 5.475
BLOOD HIV COUNT RESULTS (HIV [3]; after first cycle TPA infusion): 3.09 × 10^5 copies/ml and lower the 500 copies/ml and undetectable (4×) and 6.68 × 10^4 copies/ml and 1.65 × 10^5 copies/ml and 2.82 × 10^5 copies/ml and 2.99 × 10^5 copies/ml
BLOOD HIV COUNT LOG VALUE (HIV [3]; after third cycle TPA infusion): 5.966 and 3.980 and 3.376 and 4.792 and 5.371 and 5.270 and 5.973
BLOOD HIV COUNT RESULTS (HIV [3]; after third cycle TPA infusion): 9.24 × 10^5 copies/ml and 9.55 × 10^3 copies/ml and 2.38 × 10^3 copies/ml and undetectable (3×) and 6.20 × 10^4 copies/ml and 2.35 × 10^5 copies/ml and 1.86 × 10^5 copies/ml and 9.41 × 10^5 copies/ml
viral load of HIV (summary) (HIV [3]; ten patients): undetectable in three patients (<200); it increased somewhat in six others and was reduced in one
CD3 ([4]; Sixty Days After TPA): 902 and 2099 and 1305 and 317 and 579 and 2689
CD4 ([4]; Sixty Days After TPA): 369 and 11 and 46 and 31 and 165 and 721
CD8 ([4]; Sixty Days After TPA): 485 and 1507 and 1220 and 246 and 290 and 1897
CD3 ([4]; Thirty Days After TPA, 150 μg i.v. daily for 60 days): 1522 and 1865 and 1477 and 594 and 703 and 2771
CD4 ([4]; Thirty Days After TPA): 613 and 8 and 105 and 112 and 229 and 735
CD8 ([4]; Thirty Days After TPA): 796 and 1408 and 1318 and 424 and 343 and 1938
cytotoxic effect (cell viability and apoptosis assays) (primary AML cells; AML cases): direct therapeutic cytotoxic effects in at least a subset of AML cases
phospho-ERK pro-survival signal (primary AML cells; after 24 hour ex vivo exposure): loss of the phospho-ERK pro-survival signal
ERK phosphorylation (Western analysis) (primary AML cells; all primary cultures analyzed, by 1 hour in culture): strongly induced ERK phosphorylation
joint stiffness and hand function [5]: reduction in stiffness in the joints and an increase in functionality in their hands
